The values below come from patent publication US10206394B2, “Herbicidal compounds” (Syngenta Participations AG, priority 2014, dated 2019).

Experiment in all cases: Glasshouse assay for herbicidal activity (pre- and post-emergence), percentage phytotoxicity
Common to all, as to type: in vivo

In assay [1] the test system is Avena fatua (AVEFA). As to conditions: Rate 250 g/ha, 100%=total damage, 0%=no damage; for pest or weed control at 250 g/ha: Avena fatua. As for the experimental part:
(§1) Test—Glasshouse Assay for Herbicidal Activity
(§2) Seeds of a variety of monocotyledonous and dicotyledonous test plants are sown in standard soil in pots. The plants are cultivated for one day (for pre-emergence (PRE)) or for about 12 days (for post-emergence (POST)) under controlled conditions in a glasshouse (warm climate species at 24/18° C., cool climate species at 20/16° C., both at day/night; 16 hours light; 65% humidity).
(§3) The test plants are then grown on, in a glasshouse (greenhouse) under controlled conditions (warm climate species at 24/18° C., cool climate species at 20/16° C., both at day/night; 16 hours light; 65% humidity) and are watered twice daily. 15 days after application of the test herbicide (15 DAA) (for post-emergence), and 20 days after application of the test herbicide (20 DAA) (for pre-emergence), the test plants are evaluated visually, and an assessed percentage phytotoxicity score is given for each herbicidal application on each plant species (with 100%=total damage to plant; 0%=no damage to plant).
(§4) The plant species tested are as follows: Alopecurus myosuroides (ALOMY), Avena fatua (AVEFA), Lolium perenne (LOLPE), Echinochloa crus-galli (ECHCG).

Assay [2] has as its system Echinochloa crus-galli (ECHCG). As to conditions: Rate 250 g/ha, 100%=total damage, 0%=no damage; for pest or weed control at 250 g/ha: Echinochloa crus-galli. As for the experimental part:
as §1, §2, §3, §4

The subject of assay [3] is Lolium perenne (LOLPE). As to conditions: Rate 250 g/ha, 100%=total damage, 0%=no damage; for pest or weed control at 250 g/ha: Lolium perenne. As to the method:
as §1, §2, §3, §4

Assay [4] relates to Alopecurus myosuroides (ALOMY). Particulars: Rate 250 g/ha, 100%=total damage, 0%=no damage; for pest or weed control at 250 g/ha: Alopecurus myosuroides. As to the method:
as §1, §2, §3, §4

Setting [5] is: post-emergence, 360 h, post-emergence, assessed visually 15 DAA, read-out: Post-emergence herbicidal activity (percentage phytotoxicity) AVEFA POST.
Where [6] appears, read: pre-emergence, 480 h, pre-emergence, assessed visually 20 DAA, read-out: Pre-emergence herbicidal activity (percentage phytotoxicity) AVEFA PRE.
Setting [7] is: post-emergence, 360 h, post-emergence, assessed visually 15 DAA, read-out: Post-emergence herbicidal activity (percentage phytotoxicity) ECHCG POST.
Where [8] appears, read: pre-emergence, 480 h, pre-emergence, assessed visually 20 DAA, read-out: Pre-emergence herbicidal activity (percentage phytotoxicity) ECHCG PRE.
Setting [9] is: post-emergence, 360 h, post-emergence, assessed visually 15 DAA, read-out: Post-emergence herbicidal activity (percentage phytotoxicity) LOLPE POST.
Setting [10] is: pre-emergence, 480 h, pre-emergence, assessed visually 20 DAA, read-out: Pre-emergence herbicidal activity (percentage phytotoxicity) LOLPE PRE.
Where [11] appears, read: post-emergence, 360 h, post-emergence, assessed visually 15 DAA, read-out: Post-emergence herbicidal activity (percentage phytotoxicity) ALOMY POST.
[12] abbreviates: pre-emergence, 480 h, pre-emergence, assessed visually 20 DAA, read-out: Pre-emergence herbicidal activity (percentage phytotoxicity) ALOMY PRE.
[13] abbreviates: pre-emergence, assessed visually 20 DAA.
Where [14] appears, read: post-emergence, assessed visually 15 DAA.

The structures appear in SMILES notation. Read-outs that look alike come from different tables or passages of the source.

`Cc1cc(-c2ccc(Cl)cn2)cc(C)c1C1C(=O)CC(CC(=O)NCc2ncccc2Cl)C1=O` (stereo not drawn) [Compound A132]: the pest or weed control at 250 g/ha in assay [1] (setting [5]) amounted to 100%; in assay [1] (setting [6]), 90%; in assay [2] (setting [7]), 100%; in assay [2] (setting [8]) it was 100%; in assay [3] (setting [9]), 100%; in assay [3] (setting [10]), 90%. Also, the pest or weed control at 250 g/ha in assay [4] (setting [11]) was determined as 100%; in assay [4] (setting [12]), 90%.
Regarding `Cc1cc(-c2cnc(Cl)cn2)cc(C)c1C1C(=O)CC(CC(=O)NCc2cccc(C(F)(F)F)c2)C1=O` (stereo not drawn) [Compound A133], the pest or weed control at 250 g/ha is 100% in assay [1] (setting [5]); 90% in assay [1] (setting [6]); 100% in assay [2] (setting [7]); 90% in assay [2] (setting [8]); 80% in assay [3] (setting [9]); 80% in assay [3] (setting [10]). Also, the pest or weed control at 250 g/ha in assay [4] (setting [11]) is 90%. In addition, the “Pre-emergence herbicidal activity (percentage phytotoxicity) ALOMY PRE” value in assay [4] (setting [13]) stood at 30%.
As to `Cc1cc(-c2ccc(Cl)cn2)cc(C)c1C1C(=O)CC(CC(=O)NCc2cccc(Cl)c2)C1=O` (stereo not drawn) [Compound A134], the pest or weed control at 250 g/ha in assay [1] (setting [5]) was 90%; in assay [1] (setting [6]) it was 90%; in assay [2] (setting [7]), 100%; in assay [2] (setting [8]), 90%; in assay [3] (setting [9]), 100%; in assay [3] (setting [10]), 80%. Further, the pest or weed control at 250 g/ha in assay [4] (setting [11]) stood at 90%; in assay [4] (setting [12]) it was 70%.
`Cc1cc(-c2ncc(Cl)cc2Cl)cc(C)c1C1C(=O)CC(CC(=O)NCc2cccc(Cl)c2)C1=O` (stereo not drawn) [Compound A135]: the pest or weed control at 250 g/ha in assay [1] (setting [5]) was 100%; in assay [1] (setting [6]) it was 30%; in assay [2] (setting [7]), 100%; in assay [2] (setting [8]), 60%; in assay [3] (setting [9]), 90%; in assay [3] (setting [10]) it was 70%. Besides, the pest or weed control at 250 g/ha in assay [4] (setting [11]) was found to be 90%; in assay [4] (setting [12]), 20%.
On to `Cc1cc(-c2ncc(F)cn2)cc(C)c1C1C(=O)CC(CC(=O)NCc2ccc(C(F)(F)F)nc2)C1=O` (stereo not drawn) [Compound A136], for which the pest or weed control at 250 g/ha in assay [1] (setting [5]) stood at 100%; in assay [1] (setting [6]), 90%; in assay [2] (setting [7]), 100%; in assay [2] (setting [8]), 90%; in assay [3] (setting [9]), 90%; in assay [3] (setting [10]) it was 80%. Moreover, the values for the pest or weed control at 250 g/ha in assay [4] (setting [11]) and in assay [4] (setting [12]) were 100% and 80%, respectively.
In the case of `Cc1cc(-n2cc(Cl)cn2)cc(C)c1C1C(=O)CC(CC(=O)NCC(=O)c2ccccc2)C1=O` (stereo not drawn) [Compound A137], the pest or weed control at 250 g/ha in assay [1] (setting [5]) is 70%; in assay [1] (setting [6]) it was 60%; in assay [2] (setting [7]) it was 90%; in assay [2] (setting [8]), 70%; in assay [3] (setting [9]), 60%; in assay [3] (setting [10]) it was 70%. In addition, the pest or weed control at 250 g/ha in assay [4] (setting [11]) came to 40%; in assay [4] (setting [12]), 60%.
`Cc1cc(-c2ncc(Cl)cn2)cc(C)c1C1C(=O)CC(CC(=O)NCc2cccs2)C1=O` (stereo not drawn) [Compound A139]: the pest or weed control at 250 g/ha in assay [1] (setting [5]) is 30%; in assay [1] (setting [6]), 0%; in assay [2] (setting [7]) it was 20%; in assay [2] (setting [8]), 90%; in assay [3] (setting [9]), 10%; in assay [3] (setting [10]) it was 0%. Further, the pest or weed control at 250 g/ha in assay [4] (setting [11]) came out at 10%; in assay [4] (setting [12]), 0%.
As for `Cc1cc(-c2ncc(F)cn2)cc(C)c1C1C(=O)CC(CC(=O)NCc2ncccc2Cl)C1=O` (stereo not drawn) [Compound A140], the pest or weed control at 250 g/ha in assay [1] (setting [5]) was determined as 100%; in assay [1] (setting [6]), 100%; in assay [2] (setting [7]) it was 100%; in assay [2] (setting [8]), 100%; in assay [3] (setting [9]) it was 90%; in assay [3] (setting [10]), 100%. In addition, the pest or weed control at 250 g/ha is 100% in assay [4] (setting [11]) and 90% in assay [4] (setting [12]).
On to `Cc1cc(-c2ncc(F)cn2)cc(C)c1C1C(=O)CC(CC(=O)NCc2cccs2)C1=O` (stereo not drawn) [Compound A141], for which the pest or weed control at 250 g/ha in assay [1] (setting [5]) was found to be 100%; in assay [1] (setting [6]), 90%; in assay [2] (setting [7]), 100%; in assay [2] (setting [8]), 100%; in assay [3] (setting [9]) it was 90%; in assay [3] (setting [10]), 100%. Moreover, the pest or weed control at 250 g/ha in assay [4] (setting [11]) and in assay [4] (setting [12]) was 90% in each case.
Take `Cc1cc(-c2cncnc2)cc(C)c1C1C(=O)CC(CC(=O)NCc2ncccc2Cl)C1=O` (stereo not drawn) [Compound A143]: the pest or weed control at 250 g/ha in assay [1] (setting [6]) amounted to 0%; in assay [2] (setting [7]), 40%; in assay [2] (setting [8]) it was 10%; in assay [3] (setting [9]) it was 20%; in assay [3] (setting [10]), 10%; in assay [4] (setting [12]) it was 0%.
`CC#Cc1cc(C)c(C2C(=O)CC(CC(=O)NCc3cnc(C)cn3)C2=O)c(C)c1` (stereo not drawn) [Compound A144]: the pest or weed control at 250 g/ha in assay [1] (setting [5]) was found to be 100%; in assay [1] (setting [6]), 90%; in assay [2] (setting [7]) it was 100%; in assay [2] (setting [8]), 100%; in assay [3] (setting [9]), 90%; in assay [3] (setting [10]) it was 90%. For the same compound, the pest or weed control at 250 g/ha in assay [4] (setting [11]) and in assay [4] (setting [12]) was 80% throughout.
`Cc1cnc(CNC(=O)CC2CC(=O)C(c3c(C)cc(-c4cncnc4)cc3C)C2=O)cn1` (stereo not drawn) [Compound A147]: the pest or weed control at 250 g/ha in assay [1] (setting [5]) is 20%; in assay [2] (setting [7]), 60%; in assay [3] (setting [9]) it was 0%; in assay [4] (setting [11]) it was 20%.
In the case of `Cc1cc(-c2cnc(Cl)cn2)cc(C)c1C1C(=O)CC(CC(=O)NCc2cccs2)C1=O` (stereo not drawn) [Compound A148], the pest or weed control at 250 g/ha in assay [1] (setting [5]) was determined as 100%; in assay [1] (setting [6]), 80%; in assay [2] (setting [7]) it was 100%; in assay [2] (setting [8]) it was 100%; in assay [3] (setting [9]) it was 90%; in assay [3] (setting [10]), 80%. In addition, the pest or weed control at 250 g/ha in assay [4] (setting [11]) and in assay [4] (setting [12]) was 70% each time.
`Cc1cc(-c2cnc(Cl)cn2)cc(C)c1C1C(=O)CC(CC(=O)NCc2cccc(C(F)(F)F)c2)C1=O` (stereo not drawn) [Compound A149]: in assay [1] (setting [14]), the “Post-emergence herbicidal activity (percentage phytotoxicity) AVEFA POST” value stood at 100%. The “Pre-emergence herbicidal activity (percentage phytotoxicity) AVEFA PRE” value in assay [1] (setting [13]) was found to be 100%. In addition, in assay [2] (setting [14]), the “Post-emergence herbicidal activity (percentage phytotoxicity) ECHCG POST” value was 100%. Further, the “Pre-emergence herbicidal activity (percentage phytotoxicity) ECHCG PRE” value in assay [2] (setting [13]) was 100%. Moreover, in assay [3] (setting [14]), the “Post-emergence herbicidal activity (percentage phytotoxicity) LOLPE POST” value is 100%. The “Pre-emergence herbicidal activity (percentage phytotoxicity) LOLPE PRE” value in assay [3] (setting [13]) amounted to 90%. The “Post-emergence herbicidal activity (percentage phytotoxicity) ALOMY POST” value in assay [4] (setting [14]) was determined as 100%. In assay [4] (setting [13]), the “Pre-emergence herbicidal activity (percentage phytotoxicity) ALOMY PRE” value was determined as 80%.
Take `Cc1cc(-c2ncc(F)cc2Cl)cc(C)c1C1C(=O)CC(CC(=O)NCc2cccs2)C1=O` (stereo not drawn) [Compound A150]: the pest or weed control at 250 g/ha in assay [1] (setting [5]) worked out at 90%; in assay [1] (setting [6]), 50%; in assay [2] (setting [7]) it was 90%; in assay [2] (setting [8]) it was 90%; in assay [3] (setting [9]) it was 70%; in assay [3] (setting [10]), 80%. Also, the pest or weed control at 250 g/ha in assay [4] (setting [11]) and in assay [4] (setting [12]) was 70% in each case.
